Tests used:
Assay in all cases: KINOMEscan competition binding
Details in all cases: compound 10.0 µM
RPS6KA2 KD1 (human) = RPS6KA2 KD1 (human) (UniProt Q15349)
IKBKB (human) = IKBKB (human) (UniProt O14920)
SRPK2 (human) = SRPK2 (human) (UniProt P78362)
CSNK2A1 (human) = CSNK2A1 (human) (UniProt P68400)
PRKG2 (human) = PRKG2 (human) (UniProt Q13237)
MAPK13 (human) = MAPK13 (human) (UniProt O15264)
NEK1 (human) = NEK1 (human) (UniProt Q96PY6)
TGFBR1 (human) = TGFBR1 (human) (UniProt P36897)
NTRK3 (human) = NTRK3 (human) (UniProt Q16288)
RPS6KA5 KD1 (human) = RPS6KA5 KD1 (human) (UniProt O75582)
CDK8 (human) = CDK8 (human) (UniProt P49336)
CDK8 (human), sequence (P49336 whole entry, looked up): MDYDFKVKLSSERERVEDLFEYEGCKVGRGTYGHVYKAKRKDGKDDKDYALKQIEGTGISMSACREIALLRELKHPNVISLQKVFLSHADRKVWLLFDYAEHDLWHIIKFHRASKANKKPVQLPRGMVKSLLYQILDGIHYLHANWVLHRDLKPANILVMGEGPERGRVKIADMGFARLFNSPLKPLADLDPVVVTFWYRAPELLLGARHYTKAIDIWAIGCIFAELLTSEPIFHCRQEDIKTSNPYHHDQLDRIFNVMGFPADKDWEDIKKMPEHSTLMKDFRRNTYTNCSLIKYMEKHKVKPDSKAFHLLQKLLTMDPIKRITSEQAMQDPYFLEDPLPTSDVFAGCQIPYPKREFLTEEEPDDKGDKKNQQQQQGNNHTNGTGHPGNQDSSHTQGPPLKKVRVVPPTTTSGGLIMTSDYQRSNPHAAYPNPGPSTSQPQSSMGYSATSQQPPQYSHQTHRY

STK17A (human) = STK17A (human) (UniProt Q9UEE5)
CHEK2 (human) = CHEK2 (human) (UniProt O96017)
DAPK1 (human) = DAPK1 (human) (UniProt P53355)
DAPK1 (human), sequence (P53355 whole entry, looked up): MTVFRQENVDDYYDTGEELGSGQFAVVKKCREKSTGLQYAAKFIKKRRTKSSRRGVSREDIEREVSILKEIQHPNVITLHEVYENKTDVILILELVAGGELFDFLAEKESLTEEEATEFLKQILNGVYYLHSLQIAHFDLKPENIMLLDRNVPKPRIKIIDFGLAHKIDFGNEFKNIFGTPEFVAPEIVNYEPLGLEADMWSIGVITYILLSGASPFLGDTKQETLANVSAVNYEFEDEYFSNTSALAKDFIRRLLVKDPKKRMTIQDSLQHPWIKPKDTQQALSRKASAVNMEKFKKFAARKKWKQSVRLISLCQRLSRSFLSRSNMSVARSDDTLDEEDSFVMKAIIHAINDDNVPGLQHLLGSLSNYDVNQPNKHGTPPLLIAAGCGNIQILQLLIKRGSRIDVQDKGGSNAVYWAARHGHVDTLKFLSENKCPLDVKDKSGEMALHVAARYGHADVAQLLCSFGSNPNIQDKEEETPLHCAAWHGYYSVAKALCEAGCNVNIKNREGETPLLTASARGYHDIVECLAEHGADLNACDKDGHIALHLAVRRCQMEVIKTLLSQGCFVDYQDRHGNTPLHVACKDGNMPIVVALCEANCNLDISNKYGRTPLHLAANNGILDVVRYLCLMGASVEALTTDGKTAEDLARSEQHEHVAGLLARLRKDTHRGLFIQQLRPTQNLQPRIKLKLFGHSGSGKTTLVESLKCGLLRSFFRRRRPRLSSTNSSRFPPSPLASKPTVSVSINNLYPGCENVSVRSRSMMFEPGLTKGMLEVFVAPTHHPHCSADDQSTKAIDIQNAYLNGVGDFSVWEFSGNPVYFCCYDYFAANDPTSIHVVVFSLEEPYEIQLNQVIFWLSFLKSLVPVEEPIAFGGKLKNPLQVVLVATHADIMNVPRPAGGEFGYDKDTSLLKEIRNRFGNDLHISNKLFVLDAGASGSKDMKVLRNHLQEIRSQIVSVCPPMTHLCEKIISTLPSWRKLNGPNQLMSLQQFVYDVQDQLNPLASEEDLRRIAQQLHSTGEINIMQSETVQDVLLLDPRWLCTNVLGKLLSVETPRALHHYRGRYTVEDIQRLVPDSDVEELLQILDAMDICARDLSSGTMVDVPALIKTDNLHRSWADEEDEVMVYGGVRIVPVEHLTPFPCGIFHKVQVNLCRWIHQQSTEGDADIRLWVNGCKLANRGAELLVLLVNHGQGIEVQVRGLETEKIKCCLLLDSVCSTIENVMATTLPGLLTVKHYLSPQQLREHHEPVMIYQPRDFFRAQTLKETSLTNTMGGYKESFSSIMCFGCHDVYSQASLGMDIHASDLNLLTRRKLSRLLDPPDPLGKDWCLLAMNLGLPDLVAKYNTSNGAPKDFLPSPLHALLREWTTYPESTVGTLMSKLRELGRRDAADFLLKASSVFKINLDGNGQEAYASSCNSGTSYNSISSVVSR

TLK1 (human) = TLK1 (human) (UniProt Q9UKI8)
PDGFRA (human) = PDGFRA (human) (UniProt P16234)
SIK2 (human) = SIK2 (human) (UniProt Q9H0K1)
PRKG1 (human) = PRKG1 (human) (UniProt Q13976)
MAP3K3 (human) = MAP3K3 (human) (UniProt Q99759)
MAP4K4 (human) = MAP4K4 (human) (UniProt O95819)
HCK (human) = HCK (human) (UniProt P08631)
RPS6KA3 KD1 (human) = RPS6KA3 KD1 (human) (UniProt P51812)
PRKCH (human) = PRKCH (human) (UniProt P24723)
RPS6KA6 KD2 (human) = RPS6KA6 KD2 (human) (UniProt Q9UK32)
RPS6KA6 KD2 (human), sequence (Q9UK32 whole entry, looked up): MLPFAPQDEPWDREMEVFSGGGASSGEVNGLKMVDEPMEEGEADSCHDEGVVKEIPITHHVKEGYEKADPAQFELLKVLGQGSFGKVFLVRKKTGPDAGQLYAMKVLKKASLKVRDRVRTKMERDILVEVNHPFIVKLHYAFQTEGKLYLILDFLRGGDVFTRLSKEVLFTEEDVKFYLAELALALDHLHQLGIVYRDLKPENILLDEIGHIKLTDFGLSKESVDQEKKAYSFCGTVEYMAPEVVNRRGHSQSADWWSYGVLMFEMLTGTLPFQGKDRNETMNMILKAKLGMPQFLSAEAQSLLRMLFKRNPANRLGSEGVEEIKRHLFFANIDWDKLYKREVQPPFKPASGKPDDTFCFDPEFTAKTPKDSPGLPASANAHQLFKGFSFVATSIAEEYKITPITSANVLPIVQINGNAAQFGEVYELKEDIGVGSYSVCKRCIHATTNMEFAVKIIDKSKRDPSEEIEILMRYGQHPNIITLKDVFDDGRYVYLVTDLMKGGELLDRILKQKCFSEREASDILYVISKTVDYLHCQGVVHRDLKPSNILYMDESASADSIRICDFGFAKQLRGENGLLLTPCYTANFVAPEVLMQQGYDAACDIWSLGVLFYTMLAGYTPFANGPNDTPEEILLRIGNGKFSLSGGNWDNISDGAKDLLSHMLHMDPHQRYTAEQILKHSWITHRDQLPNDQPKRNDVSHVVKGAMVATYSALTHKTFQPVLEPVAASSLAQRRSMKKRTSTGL

PRKACA (human) = PRKACA (human) (UniProt P17612)
EPHA2 (human) = EPHA2 (human) (UniProt P29317)
MKNK1 (human) = MKNK1 (human) (UniProt Q9BUB5)
TAOK3 (human) = TAOK3 (human) (UniProt Q9H2K8)
PIK3C2B (human) = PIK3C2B (human) (UniProt O00750)
RIOK2 (human) = RIOK2 (human) (UniProt Q9BVS4)
ANKK1 (human) = ANKK1 (human) (UniProt Q8NFD2)
CaMK1 (human) = CaMK1 (human) (UniProt Q14012)
CDK15 (human) = CDK15 (human) (UniProt Q96Q40)
CDK15 (human), sequence (Q96Q40 whole entry, looked up): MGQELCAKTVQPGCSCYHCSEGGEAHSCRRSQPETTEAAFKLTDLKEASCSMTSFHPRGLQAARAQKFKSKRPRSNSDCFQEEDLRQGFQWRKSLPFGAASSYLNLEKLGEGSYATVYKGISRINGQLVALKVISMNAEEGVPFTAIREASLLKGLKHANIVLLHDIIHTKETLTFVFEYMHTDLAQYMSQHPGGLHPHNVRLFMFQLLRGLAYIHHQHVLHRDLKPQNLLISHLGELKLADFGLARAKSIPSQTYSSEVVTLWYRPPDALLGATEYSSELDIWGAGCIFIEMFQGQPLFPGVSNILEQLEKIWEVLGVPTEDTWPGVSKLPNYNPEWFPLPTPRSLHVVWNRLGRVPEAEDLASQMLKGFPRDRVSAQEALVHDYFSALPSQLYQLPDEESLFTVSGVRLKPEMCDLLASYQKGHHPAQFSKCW

FGR (human) = FGR (human) (UniProt P09769)
NUAK2 (human) = NUAK2 (human) (UniProt Q9H093)
FLT1 (human) = FLT1 (human) (UniProt P17948)
FLT1 (human), sequence (P17948 whole entry, looked up): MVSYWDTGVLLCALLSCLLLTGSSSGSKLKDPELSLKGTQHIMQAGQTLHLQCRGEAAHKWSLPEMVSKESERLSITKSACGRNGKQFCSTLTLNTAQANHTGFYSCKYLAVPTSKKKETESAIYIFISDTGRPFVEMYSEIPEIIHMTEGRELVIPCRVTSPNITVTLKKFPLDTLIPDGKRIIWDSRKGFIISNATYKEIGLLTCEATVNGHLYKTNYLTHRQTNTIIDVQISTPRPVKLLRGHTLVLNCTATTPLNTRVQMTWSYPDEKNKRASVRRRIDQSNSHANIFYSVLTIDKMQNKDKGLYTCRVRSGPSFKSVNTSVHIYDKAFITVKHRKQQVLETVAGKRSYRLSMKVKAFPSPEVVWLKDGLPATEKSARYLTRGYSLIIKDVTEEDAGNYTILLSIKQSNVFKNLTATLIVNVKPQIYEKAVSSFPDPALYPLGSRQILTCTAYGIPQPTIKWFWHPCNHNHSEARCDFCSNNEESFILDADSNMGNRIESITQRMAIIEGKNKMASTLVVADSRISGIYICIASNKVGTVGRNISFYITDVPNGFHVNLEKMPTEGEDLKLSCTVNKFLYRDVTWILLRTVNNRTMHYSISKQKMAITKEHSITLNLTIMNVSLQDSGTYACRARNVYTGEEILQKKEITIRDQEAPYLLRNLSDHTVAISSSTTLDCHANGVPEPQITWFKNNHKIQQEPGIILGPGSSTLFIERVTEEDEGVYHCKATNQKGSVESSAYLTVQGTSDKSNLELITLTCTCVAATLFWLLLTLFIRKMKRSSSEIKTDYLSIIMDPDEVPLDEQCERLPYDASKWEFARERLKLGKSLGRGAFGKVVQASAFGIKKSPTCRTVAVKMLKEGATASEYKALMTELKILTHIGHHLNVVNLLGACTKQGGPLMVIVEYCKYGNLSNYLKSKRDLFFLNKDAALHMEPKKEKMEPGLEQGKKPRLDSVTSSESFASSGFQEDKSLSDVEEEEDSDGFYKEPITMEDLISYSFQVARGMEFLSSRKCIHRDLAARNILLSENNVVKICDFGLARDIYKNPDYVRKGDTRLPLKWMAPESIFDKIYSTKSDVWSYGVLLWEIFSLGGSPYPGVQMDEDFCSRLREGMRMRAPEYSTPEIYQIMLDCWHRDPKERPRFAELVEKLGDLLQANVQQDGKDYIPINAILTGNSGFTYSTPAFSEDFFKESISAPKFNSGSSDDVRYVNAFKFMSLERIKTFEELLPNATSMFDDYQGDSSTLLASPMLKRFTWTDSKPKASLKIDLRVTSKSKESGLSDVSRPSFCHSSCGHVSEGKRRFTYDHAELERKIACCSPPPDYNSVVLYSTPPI

WEE2 (human) = WEE2 (human) (UniProt P0C1S8)
TGFBR2 (human) = TGFBR2 (human) (UniProt P37173)
MAP3K4 (human) = MAP3K4 (human) (UniProt Q9Y6R4)

CSNK2A1 (human), sequence (P68400 whole entry, looked up): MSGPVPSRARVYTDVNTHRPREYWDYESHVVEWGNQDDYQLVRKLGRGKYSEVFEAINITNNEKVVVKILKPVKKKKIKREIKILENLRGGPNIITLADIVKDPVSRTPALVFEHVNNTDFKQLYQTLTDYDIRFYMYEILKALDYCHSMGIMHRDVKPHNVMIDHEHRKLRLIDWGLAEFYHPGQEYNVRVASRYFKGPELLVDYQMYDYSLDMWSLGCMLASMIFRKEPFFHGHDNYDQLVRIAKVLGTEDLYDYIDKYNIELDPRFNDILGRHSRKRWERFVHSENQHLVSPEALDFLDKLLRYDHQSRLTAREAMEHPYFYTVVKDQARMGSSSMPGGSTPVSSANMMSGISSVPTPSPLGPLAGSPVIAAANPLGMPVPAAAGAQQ

kinase still bound, per cent of control (RPS6KA2 KD1 (human)) [%] | kinase still bound, per cent of control (IKBKB (human)) [%] | kinase still bound, per cent of control (SRPK2 (human)) [%] | kinase still bound, per cent of control (CSNK2A1 (human)) [%] | kinase still bound, per cent of control (PRKG2 (human)) [%] | kinase still bound, per cent of control (MAPK13 (human)) [%] | kinase still bound, per cent of control (NEK1 (human)) [%] | kinase still bound, per cent of control (TGFBR1 (human)) [%] | kinase still bound, per cent of control (NTRK3 (human)) [%] | kinase still bound, per cent of control (RPS6KA5 KD1 (human)) [%] | kinase still bound, per cent of control (CDK8 (human)) [%] | kinase still bound, per cent of control (STK17A (human)) [%] | kinase still bound, per cent of control (CHEK2 (human)) [%] | kinase still bound, per cent of control (DAPK1 (human)) [%] | kinase still bound, per cent of control (TLK1 (human)) [%] | kinase still bound, per cent of control (PDGFRA (human)) [%] | kinase still bound, per cent of control (SIK2 (human)) [%] | kinase still bound, per cent of control (PRKG1 (human)) [%] | kinase still bound, per cent of control (MAP3K3 (human)) [%] | kinase still bound, per cent of control (MAP4K4 (human)) [%] | SMILES | further results
1.8 | 100 | 24 | 4.4 | 25 | 100 | 100 | 100 | 0.4 | 100 | 100 | 100 | 100 | 100 | 100 | 100 | 9.8 | 100 | 4.8 | 31 | CNC(=O)c1ccc(Nc2cc(Nc3ccccc3S(=O)(=O)C(C)C)c3cc[nH]c3n2)nc1 | kinase still bound, per cent of control (HCK (human)): 11%; kinase still bound, per cent of control (RPS6KA3 KD1 (human)): 25%; kinase still bound, per cent of control (PRKCH (human)): 100%; kinase still bound, per cent of control (RPS6KA6 KD2 (human)): 100%; kinase still bound, per cent of control (PRKACA (human)): 100%; kinase still bound, per cent of control (EPHA2 (human)): 100%; kinase still bound, per cent of control (MKNK1 (human)): 100%; kinase still bound, per cent of control (TAOK3 (human)): 2%; kinase still bound, per cent of control (PIK3C2B (human)): 100%; kinase still bound, per cent of control (RIOK2 (human)): 13%; kinase still bound, per cent of control (ANKK1 (human)): 100%; kinase still bound, per cent of control (CaMK1 (human)): 100%; kinase still bound, per cent of control (CDK15 (human)): 18%; kinase still bound, per cent of control (FGR (human)): 5%; kinase still bound, per cent of control (NUAK2 (human)): 0.4%; kinase still bound, per cent of control (FLT1 (human)): 100%; kinase still bound, per cent of control (WEE2 (human)): 100%; kinase still bound, per cent of control (TGFBR2 (human)): 100%; kinase still bound, per cent of control (MAP3K4 (human)): 100%
100 | 100 | 100 | 100 | 100 | 4.9 | 100 | 100 | 100 | 100 | 100 | 100 | 100 | 100 | 100 | 2.2 | 100 | 100 | 5.8 | 100 | C=CC(=O)Nc1ccc(CN(C(=O)Nc2c(Cl)c(OC)cc(OC)c2Cl)c2cc(Nc3ccc(N4CCN(C)CC4)cc3)ncn2)cc1 | kinase still bound, per cent of control (HCK (human)): 11%; kinase still bound, per cent of control (RPS6KA3 KD1 (human)): 100%; kinase still bound, per cent of control (PRKCH (human)): 100%; kinase still bound, per cent of control (RPS6KA6 KD2 (human)): 100%; kinase still bound, per cent of control (PRKACA (human)): 100%; kinase still bound, per cent of control (EPHA2 (human)): 100%; kinase still bound, per cent of control (MKNK1 (human)): 100%; kinase still bound, per cent of control (TAOK3 (human)): 0.9%; kinase still bound, per cent of control (PIK3C2B (human)): 100%; kinase still bound, per cent of control (RIOK2 (human)): 100%; kinase still bound, per cent of control (ANKK1 (human)): 100%; kinase still bound, per cent of control (CaMK1 (human)): 100%; kinase still bound, per cent of control (CDK15 (human)): 100%; kinase still bound, per cent of control (FGR (human)): 7%; kinase still bound, per cent of control (NUAK2 (human)): 100%; kinase still bound, per cent of control (FLT1 (human)): 0.3%; kinase still bound, per cent of control (WEE2 (human)): 100%; kinase still bound, per cent of control (TGFBR2 (human)): 100%; kinase still bound, per cent of control (MAP3K4 (human)): 10%

Reference: the kinase profiling compilation of Christmann-Franck et al. (2016)
